# Target: T1, His6-TEV-PPARγ-(234-505) (Homo sapiens, UniProt P37231)
# T1 construct: The His6-TEV-PPARγ-(234-505) protein for assay was expressed and purified; TEV cleavage site (N); made in house
# T1 sequence (P37231 234-505): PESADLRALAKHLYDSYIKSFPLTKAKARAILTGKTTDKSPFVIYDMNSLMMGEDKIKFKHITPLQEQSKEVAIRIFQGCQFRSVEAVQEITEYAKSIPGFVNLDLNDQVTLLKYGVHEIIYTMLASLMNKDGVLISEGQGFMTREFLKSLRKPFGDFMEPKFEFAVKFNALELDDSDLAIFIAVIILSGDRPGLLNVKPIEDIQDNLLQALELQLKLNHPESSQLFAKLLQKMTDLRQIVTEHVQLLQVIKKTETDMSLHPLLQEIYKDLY
# Assay: TR-FRET Assay to Measure Co-R Peptide Recruitment to PPARγ
# Format: biochemical
# Details: Co-R peptide recruitment to PPARγ; read-out: TR-FRET AC50
# Outline: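 Corepressor recruitment is measured by adding terbium-labeled anti-His antibody and FITC SMRT-ID2 peptide, at 5 and 200 nM final, after a 20-minute room-temperature protein–compound incubation. After one further hour, signal is converted to percent response between DMSO and 500 nM T0070907 wells.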
row,Compound,AC50 [nM]
1,Cc1ccc([C@H](C)NC(=O)C2CCN(C(=O)c3cc(-c4ccncc4)[nH]n3)CC2)cc1 [N-[(1S)-1-(4-methylphenyl)ethyl]-1-[5-(pyridin-4-yl)-1H-pyrazole-3-carbonyl]piperidine-4-carboxamide],> 1000
2,C[C@H](NC(=O)C1CCN(C(=O)c2cc(-c3ccncc3)[nH]n2)CC1)c1ccccc1 [N-[(1S)-1-phenylethyl]-1-[5-(pyridin-4-yl)-1H-pyrazole-3-carbonyl]piperidine-4-carboxamide],> 1000
3,CC[C@H](NC(=O)C1CCN(C(=O)c2cc(-c3ccncc3)[nH]n2)CC1)c1ccccc1 [N-[(1S)-1-phenylpropyl]-1-[5-(pyridin-4-yl)-1H-pyrazole-3-carbonyl]piperidine-4-carboxamide],> 1000
4,"COc1cccc(CNC(=O)C2CCN(C(=O)c3cc(-c4ccncc4)[nH]n3)CC2)c1OC [N-[(2,3-dimethoxyphenyl)methyl]-1-[5-(pyridin-4-yl)-1H-pyrazole-3-carbonyl]piperidine-4-carboxamide]",> 1000
5,"O=C(NCc1cc(Cl)ccc1Cl)C1CCN(C(=O)c2cc(-c3cccnc3)[nH]n2)CC1 [N-[(2,5-dichlorophenyl)methyl]-1-[5-(pyridin-3-yl)-1H-pyrazole-3-carbonyl]piperidine-4-carboxamide]",> 1000
6,"O=C(NCc1cc(Cl)ccc1Cl)C1CCN(C(=O)c2cc(-c3ccncc3)[nH]n2)CC1 [N-[(2,5-dichlorophenyl)methyl]-1-[5-(pyridin-4-yl)-1H-pyrazole-3-carbonyl]piperidine-4-carboxamide]",> 1000
7,"COc1ccc(OC)c(CNC(=O)C2CCN(C(=O)c3cc(-c4ccncc4)[nH]n3)CC2)c1 [N-[(2,5-dimethoxyphenyl)methyl]-1-[5-(pyridin-4-yl)-1H-pyrazole-3-carbonyl]piperidine-4-carboxamide]",> 1000
8,"COc1cccc(OC)c1CNC(=O)C1CCN(C(=O)c2cc(-c3ccncc3)[nH]n2)CC1 [N-[(2,6-dimethoxyphenyl)methyl]-1-[5-(pyridin-4-yl)-1H-pyrazole-3-carbonyl]piperidine-4-carboxamide]",> 1000
9,"Cc1cc(CNC(=O)C2CCN(C(=O)c3cc(-c4ccncc4)[nH]n3)CC2)cc(C)n1 [N-[(2,6-dimethylpyridin-4-yl)methyl]-1-[5-(pyridin-4-yl)-1H-pyrazole-3-carbonyl]piperidine-4-carboxamide]",> 1000
10,O=C(NCc1ccccc1Cl)C1CCN(C(=O)c2cc(-c3cccnc3)[nH]n2)CC1 [N-[(2-chlorophenyl)methyl]-1-[5-(pyridin-3-yl)-1H-pyrazole-3-carbonyl]piperidine-4-carboxamide],> 1000
11,O=C(NCc1ccccc1Cl)C1CCN(C(=O)c2cc(-c3ccncc3)[nH]n2)CC1 [N-[(2-chlorophenyl)methyl]-1-[5-(pyridin-4-yl)-1H-pyrazole-3-carbonyl]piperidine-4-carboxamide],> 1000
12,O=C(NCc1ccccc1F)C1CCN(C(=O)c2cc(-c3ccncc3)[nH]n2)CC1 [N-[(2-fluorophenyl)methyl]-1-[5-(pyridin-4-yl)-1H-pyrazole-3-carbonyl]piperidine-4-carboxamide],> 1000
13,COc1c(C)cccc1CNC(=O)C1CCN(C(=O)c2cc(-c3ccncc3)[nH]n2)CC1 [N-[(2-methoxy-3-methylphenyl)methyl]-1-[5-(pyridin-4-yl)-1H-pyrazole-3-carbonyl]piperidine-4-carboxamide],> 1000
14,"COc1nc(C)cc(C)c1CNC(=O)C1CCN(C(=O)c2cc(-c3ccncc3)[nH]n2)CC1 [N-[(2-methoxy-4,6-dimethylpyridin-3-yl)methyl]-1-[5-(pyridin-4-yl)-1H-pyrazole-3-carbonyl]piperidine-4-carboxamide]",> 1000
15,COc1ccc(C)cc1CNC(=O)C1CCN(C(=O)c2cc(-c3ccncc3)[nH]n2)CC1 [N-[(2-methoxy-5-methylphenyl)methyl]-1-[5-(pyridin-4-yl)-1H-pyrazole-3-carbonyl]piperidine-4-carboxamide],> 1000
16,COc1ccccc1CNC(=O)C1CCN(C(=O)c2cc(-c3ccncc3)[nH]n2)CC1 [N-[(2-methoxyphenyl)methyl]-1-[5-(pyridin-4-yl)-1H-pyrazole-3-carbonyl]piperidine-4-carboxamide],> 1000
17,Cc1cc(CNC(=O)C2CCN(C(=O)c3cc(-c4ccncc4)[nH]n3)CC2)ccn1 [N-[(2-methylpyridin-4-yl)methyl]-1-[5-(pyridin-4-yl)-1H-pyrazole-3-carbonyl]piperidine-4-carboxamide],> 1000
18,"O=C(NCc1ccc2c(c1)OCO2)C1CCCN(C(=O)c2cc(-c3ccncc3)[nH]n2)C1 (centres unmarked) [N-[(2H-1,3-benzodioxol-5-yl)methyl]-1-[5-(pyridin-4-yl)-1H-pyrazole-3-carbonyl]piperidine-3-carboxamide]",> 1000

row,Compound,AC50 [nM]
1,"O=C(NCc1ccc2c(c1)OCO2)C1CCN(C(=O)c2cc(-c3ccncc3)[nH]n2)CC1 [N-[(2H-1,3-benzodioxol-5-yl)methyl]-1-[5-(pyridin-4-yl)-1H-pyrazole-3-carbonyl]piperidine-4-carboxamide]",> 1000
2,C[C@@H](CNC(=O)C1CCN(C(=O)c2cc(-c3ccncc3)[nH]n2)CC1)c1ccccc1 [N-[(2R)-2-phenylpropyl]-1-[5-(pyridin-4-yl)-1H-pyrazole-3-carbonyl]piperidine-4-carboxamide],> 1000
3,C[C@H](CNC(=O)C1CCN(C(=O)c2cc(-c3ccncc3)[nH]n2)CC1)c1ccccc1 [N-[(2S)-2-phenylpropyl]-1-[5-(pyridin-4-yl)-1H-pyrazole-3-carbonyl]piperidine-4-carboxamide],> 1000
4,"O=C(NCc1ccc(Cl)c(Cl)c1)C1CCN(C(=O)c2cc(-c3cccnc3)[nH]n2)CC1 [N-[(3,4-dichlorophenyl)methyl]-1-[5-(pyridin-3-yl)-1H-pyrazole-3-carbonyl]piperidine-4-carboxamide]",> 1000
5,COc1c(Cl)cccc1CNC(=O)C1CCN(C(=O)c2cc(-c3ccncc3)[nH]n2)CC1 [N-[(3-chloro-2-methoxyphenyl)methyl]-1-[5-(pyridin-4-yl)-1H-pyrazole-3-carbonyl]piperidine-4-carboxamide],> 1000
6,COc1cc(-c2cc(C(=O)N3CCC(C(=O)NCc4cccc(Cl)c4)CC3)n[nH]2)c(C)cn1 [N-[(3-chlorophenyl)methyl]-1-[5-(2-methoxy-5-methylpyridin-4-yl)-1H-pyrazole-3-carbonyl]piperidine-4-carboxamide],> 1000
7,O=C(NCc1cccc(Cl)c1)C1CCN(C(=O)c2cc(-c3ccncc3)[nH]n2)CC1 [N-[(3-chlorophenyl)methyl]-1-[5-(pyridin-4-yl)-1H-pyrazole-3-carbonyl]piperidine-4-carboxamide],> 1000
8,COc1cc(-c2cc(C(=O)N3CC4CC3CC4C(=O)NCc3cccc(Cl)c3)n[nH]2)c(F)cn1 (centres unmarked) [N-[(3-chlorophenyl)methyl]-2-[5-(5-fluoro-2-methoxypyridin-4-yl)-1H-pyrazole-3-carbonyl]-2-azabicyclo[2.2.1]heptane-5-carboxamide],> 1000
9,COc1cc(-c2cc(C(=O)N3CC4CCC(C3)C4C(=O)NCc3cccc(Cl)c3)n[nH]2)c(F)cn1 (centres unmarked) [N-[(3-chlorophenyl)methyl]-3-[5-(5-fluoro-2-methoxypyridin-4-yl)-1H-pyrazole-3-carbonyl]-3-azabicyclo[3.2.1]octane-8-carboxamide],> 1000
10,COc1cccc(CNC(=O)C2CCN(C(=O)c3cc(-c4ccncc4)[nH]n3)CC2)c1 [N-[(3-methoxyphenyl)methyl]-1-[5-(pyridin-4-yl)-1H-pyrazole-3-carbonyl]piperidine-4-carboxamide],> 1000
11,Cc1cccc(CNC(=O)C2CCCN(C(=O)c3cc(-c4ccncc4)[nH]n3)C2)c1 (centres unmarked) [N-[(3-methylphenyl)methyl]-1-[5-(pyridin-4-yl)-1H-pyrazole-3-carbonyl]piperidine-3-carboxamide],> 1000
12,O=C(N[C@@H]1CCN(Cc2ccccc2)C1)C1CCN(C(=O)c2cc(-c3cccnc3)[nH]n2)CC1 [N-[(3R)-1-benzylpyrrolidin-3-yl]-1-[5-(pyridin-3-yl)-1H-pyrazole-3-carbonyl]piperidine-4-carboxamide],> 1000
13,O=C(N[C@@H]1CCN(Cc2ccccc2)C1)C1CCN(C(=O)c2cc(-c3ccncc3)[nH]n2)CC1 [N-[(3R)-1-benzylpyrrolidin-3-yl]-1-[5-(pyridin-4-yl)-1H-pyrazole-3-carbonyl]piperidine-4-carboxamide],> 1000
14,O=C(N[C@H]1CCN(Cc2ccccc2)C1)C1CCN(C(=O)c2cc(-c3cccnc3)[nH]n2)CC1 [N-[(3S)-1-benzylpyrrolidin-3-yl]-1-[5-(pyridin-3-yl)-1H-pyrazole-3-carbonyl]piperidine-4-carboxamide],> 1000
15,"Cc1nc(CNC(=O)C2CCN(C(=O)c3cc(-c4ccncc4)[nH]n3)CC2)sc1C [N-[(4,5-dimethyl-1,3-thiazol-2-yl)methyl]-1-[5-(pyridin-4-yl)-1H-pyrazole-3-carbonyl]piperidine-4-carboxamide]",> 1000
16,"Cc1cc(CNC(=O)C2CCN(C(=O)c3cc(-c4ccncc4)[nH]n3)CC2)sc1C [N-[(4,5-dimethylthiophen-2-yl)methyl]-1-[5-(pyridin-4-yl)-1H-pyrazole-3-carbonyl]piperidine-4-carboxamide]",> 1000
17,COc1cc(Cl)ccc1CNC(=O)C1CCN(C(=O)c2cc(-c3ccncc3)[nH]n2)CC1 [N-[(4-chloro-2-methoxyphenyl)methyl]-1-[5-(pyridin-4-yl)-1H-pyrazole-3-carbonyl]piperidine-4-carboxamide],> 1000
